Test results reported in ChEMBL document CHEMBL1128895, “Synthesis and pharmacological characterization of A-80426: A putative novel antidepressant combining -2 antagonism with 5-HT uptake inhibition” (Bioorg Med Chem Lett, 1995).

Experiments:
[1] = species: Rattus norvegicus; assay: Evaluated for inhibition of dopamine, biogenic amine reuptake in synaptosomal rat brain preparations; type: functional
[2] = species: Rattus norvegicus; assay: Evaluated for inhibition of norepinephrine, biogenic amine reuptake in synaptosomal rat brain preparations; type: functional
[3] = target: T1, Adrenergic receptor alpha-1 (Rattus norvegicus, UniProt P15823+P23944+P43140); assay: Evaluated for affinity at Alpha-1 adrenergic receptor of rat brain using [3H]prazosin as radioligand in radioligand binding assay
T1 sequence (P15823 whole entry): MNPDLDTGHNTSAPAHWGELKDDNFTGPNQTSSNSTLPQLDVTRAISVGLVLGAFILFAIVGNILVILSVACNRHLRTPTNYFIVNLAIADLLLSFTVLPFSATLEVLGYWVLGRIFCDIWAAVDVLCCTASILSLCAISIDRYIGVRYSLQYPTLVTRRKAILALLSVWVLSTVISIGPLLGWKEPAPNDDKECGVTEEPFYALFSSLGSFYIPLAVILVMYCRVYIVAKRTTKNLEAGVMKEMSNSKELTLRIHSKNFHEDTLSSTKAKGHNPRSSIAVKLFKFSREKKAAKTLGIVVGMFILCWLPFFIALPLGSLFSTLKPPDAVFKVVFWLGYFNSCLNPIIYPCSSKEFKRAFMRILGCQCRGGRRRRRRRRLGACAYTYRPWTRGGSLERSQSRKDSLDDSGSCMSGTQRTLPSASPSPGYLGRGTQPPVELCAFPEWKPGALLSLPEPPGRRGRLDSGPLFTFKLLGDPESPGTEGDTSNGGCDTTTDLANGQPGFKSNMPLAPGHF
T1 sequence (P23944 whole entry): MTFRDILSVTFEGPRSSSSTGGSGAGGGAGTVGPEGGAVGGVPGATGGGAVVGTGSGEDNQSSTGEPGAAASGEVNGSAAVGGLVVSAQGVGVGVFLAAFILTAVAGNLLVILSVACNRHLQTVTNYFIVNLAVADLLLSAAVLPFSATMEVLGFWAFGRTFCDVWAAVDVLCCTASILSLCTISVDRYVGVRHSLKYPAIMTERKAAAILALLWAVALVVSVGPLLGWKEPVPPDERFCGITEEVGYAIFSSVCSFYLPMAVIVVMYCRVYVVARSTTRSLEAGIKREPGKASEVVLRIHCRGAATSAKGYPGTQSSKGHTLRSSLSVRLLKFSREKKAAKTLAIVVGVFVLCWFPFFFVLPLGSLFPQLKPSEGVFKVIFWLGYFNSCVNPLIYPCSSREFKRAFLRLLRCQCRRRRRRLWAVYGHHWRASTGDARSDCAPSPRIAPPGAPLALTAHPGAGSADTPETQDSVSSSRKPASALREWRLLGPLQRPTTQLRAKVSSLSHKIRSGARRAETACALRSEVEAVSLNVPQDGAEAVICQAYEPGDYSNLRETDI
T1 sequence (P43140 whole entry): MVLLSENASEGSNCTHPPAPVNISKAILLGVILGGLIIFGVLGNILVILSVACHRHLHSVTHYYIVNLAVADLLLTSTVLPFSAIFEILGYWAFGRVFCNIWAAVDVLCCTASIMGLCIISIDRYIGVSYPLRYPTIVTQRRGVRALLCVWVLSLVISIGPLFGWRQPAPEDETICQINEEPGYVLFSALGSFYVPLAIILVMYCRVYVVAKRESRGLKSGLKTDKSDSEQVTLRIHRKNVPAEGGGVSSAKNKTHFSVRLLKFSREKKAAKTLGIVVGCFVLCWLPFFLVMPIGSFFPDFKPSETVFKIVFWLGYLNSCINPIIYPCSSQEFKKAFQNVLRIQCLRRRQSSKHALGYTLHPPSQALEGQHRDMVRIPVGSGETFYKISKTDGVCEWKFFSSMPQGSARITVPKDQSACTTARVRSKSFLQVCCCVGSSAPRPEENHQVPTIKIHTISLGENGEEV

[4] = target: T2, Adrenergic receptor alpha-2 (Rattus norvegicus, UniProt P22086+P19328+P22909); assay: Evaluated for affinity at Alpha-2 adrenergic receptor of rat brain using [3H]rauwolscine as radioligand in radioligand binding assay
T2 sequence (P22086 whole entry): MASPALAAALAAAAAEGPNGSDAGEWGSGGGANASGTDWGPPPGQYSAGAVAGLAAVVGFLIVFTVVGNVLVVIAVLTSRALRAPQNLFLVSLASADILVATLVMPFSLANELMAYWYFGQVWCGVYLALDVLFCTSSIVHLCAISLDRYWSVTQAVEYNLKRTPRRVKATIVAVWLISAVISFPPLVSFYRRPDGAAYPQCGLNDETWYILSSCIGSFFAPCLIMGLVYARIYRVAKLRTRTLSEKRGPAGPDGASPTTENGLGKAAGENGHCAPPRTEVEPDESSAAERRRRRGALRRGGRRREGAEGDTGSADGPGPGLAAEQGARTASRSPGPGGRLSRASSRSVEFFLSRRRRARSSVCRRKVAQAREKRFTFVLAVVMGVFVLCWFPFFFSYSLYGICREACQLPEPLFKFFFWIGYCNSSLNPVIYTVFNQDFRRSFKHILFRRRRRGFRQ
T2 sequence (P19328 whole entry): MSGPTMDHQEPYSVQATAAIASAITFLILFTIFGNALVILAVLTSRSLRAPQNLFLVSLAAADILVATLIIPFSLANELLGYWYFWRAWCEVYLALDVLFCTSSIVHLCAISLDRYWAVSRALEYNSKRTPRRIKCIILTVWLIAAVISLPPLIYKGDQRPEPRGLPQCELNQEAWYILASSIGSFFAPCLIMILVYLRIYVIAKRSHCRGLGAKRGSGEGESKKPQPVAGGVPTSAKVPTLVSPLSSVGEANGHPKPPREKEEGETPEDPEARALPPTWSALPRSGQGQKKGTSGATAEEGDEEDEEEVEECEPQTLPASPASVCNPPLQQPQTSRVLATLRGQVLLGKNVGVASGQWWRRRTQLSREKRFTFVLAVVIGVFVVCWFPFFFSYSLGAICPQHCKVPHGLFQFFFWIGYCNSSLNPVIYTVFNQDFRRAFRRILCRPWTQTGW
T2 sequence (P22909 whole entry): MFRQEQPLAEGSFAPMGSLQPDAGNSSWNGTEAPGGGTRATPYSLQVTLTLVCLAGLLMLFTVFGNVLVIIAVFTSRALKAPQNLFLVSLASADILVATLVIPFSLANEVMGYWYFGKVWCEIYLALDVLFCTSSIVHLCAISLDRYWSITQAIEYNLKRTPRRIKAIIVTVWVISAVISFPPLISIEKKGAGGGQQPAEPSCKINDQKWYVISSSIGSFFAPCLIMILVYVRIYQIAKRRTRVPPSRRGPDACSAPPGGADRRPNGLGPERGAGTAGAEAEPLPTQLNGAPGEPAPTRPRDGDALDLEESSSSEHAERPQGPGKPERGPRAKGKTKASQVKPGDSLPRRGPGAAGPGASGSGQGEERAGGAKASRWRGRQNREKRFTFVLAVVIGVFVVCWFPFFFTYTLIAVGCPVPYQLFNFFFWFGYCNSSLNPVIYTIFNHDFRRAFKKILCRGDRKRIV

[5] = species: Rattus norvegicus; assay: […] p-chloroamphetamine (PCA) induced hyperactivity in rats; type: functional
[6] = species: Rattus norvegicus; assay: […] reversal of passive avoidance deficit in olfactory bulbectomized rats; type: functional
[7] = species: Rattus norvegicus; assay: Evaluated for inhibition of 5-Hydroxytryptamine, biogenic amine reuptake in synaptosomal rat brain preparations; type: functional
[8] = target: Serotonin 1 (5-HT1) receptor (Rattus norvegicus, UniProt P28564+P30940+P19327+P28565); assay: Compound was evaluated for its binding affinity to 5-hydroxytryptamine 1 receptor in rat brain using [3H]HT radioligand assay; type: tissue-based
[9] = target: Serotonin 2 (5-HT2) receptor (Rattus norvegicus, UniProt P30994+P08909+P14842); assay: Compound was evaluated for its binding affinity to 5-hydroxytryptamine 2 receptor in rat cortex using [3H]ketanserin radioligand assay
[10] = target: T2, Adrenergic receptor alpha-2; assay: Evaluated for affinity at Alpha-2 adrenergic receptor of rat cortex using [3H]rauwolscine as radioligand in radioligand binding assay
[11] = target: D(1A) dopamine receptor (Rattus norvegicus, UniProt P18901); assay: Compound was evaluated for its binding affinity to Dopamine receptor D1 in rat striatum using [3H]- SCH-23390 radioligand assay; type: tissue-based
[12] = target: D(2) dopamine receptor (Rattus norvegicus, UniProt P61169); assay: Compound was evaluated for its binding affinity to Dopamine receptor D2 in rat brain using [3H]- spiroperidol radioligand assay; type: tissue-based
[13] = target: Beta-1 adrenergic receptor (Rattus norvegicus, UniProt P18090); assay: Compound was evaluated for its binding affinity to beta-1 receptor in rat brain using [3H]- DHA radioligand assay; type: tissue-based
Chain of Beta-1 adrenergic receptor (P18090 whole entry): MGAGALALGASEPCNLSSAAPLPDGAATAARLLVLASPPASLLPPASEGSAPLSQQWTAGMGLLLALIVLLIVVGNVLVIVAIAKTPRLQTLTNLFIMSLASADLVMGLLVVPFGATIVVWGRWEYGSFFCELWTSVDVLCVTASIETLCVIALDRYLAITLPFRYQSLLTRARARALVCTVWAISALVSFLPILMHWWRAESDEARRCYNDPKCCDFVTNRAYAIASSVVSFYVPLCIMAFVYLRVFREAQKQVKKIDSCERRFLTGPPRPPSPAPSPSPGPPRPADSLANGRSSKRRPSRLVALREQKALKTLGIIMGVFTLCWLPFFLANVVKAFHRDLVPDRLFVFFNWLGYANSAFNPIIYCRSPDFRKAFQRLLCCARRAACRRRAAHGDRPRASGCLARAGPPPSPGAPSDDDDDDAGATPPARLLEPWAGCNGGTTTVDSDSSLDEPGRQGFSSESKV

Chain of D(2) dopamine receptor (P61169 whole entry): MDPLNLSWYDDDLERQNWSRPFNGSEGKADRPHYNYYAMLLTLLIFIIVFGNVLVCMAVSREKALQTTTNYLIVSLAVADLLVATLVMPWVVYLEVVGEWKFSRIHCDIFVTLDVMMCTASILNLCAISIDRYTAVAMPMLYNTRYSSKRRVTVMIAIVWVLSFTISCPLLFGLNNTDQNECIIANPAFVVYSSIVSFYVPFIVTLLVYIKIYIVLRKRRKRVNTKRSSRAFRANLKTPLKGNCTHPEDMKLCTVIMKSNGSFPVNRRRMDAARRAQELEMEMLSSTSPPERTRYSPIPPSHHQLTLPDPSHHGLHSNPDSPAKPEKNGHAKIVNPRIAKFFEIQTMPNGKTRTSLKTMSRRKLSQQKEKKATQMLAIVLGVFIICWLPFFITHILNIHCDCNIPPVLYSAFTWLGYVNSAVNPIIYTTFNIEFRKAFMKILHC
Chain of D(1A) dopamine receptor (P18901 whole entry): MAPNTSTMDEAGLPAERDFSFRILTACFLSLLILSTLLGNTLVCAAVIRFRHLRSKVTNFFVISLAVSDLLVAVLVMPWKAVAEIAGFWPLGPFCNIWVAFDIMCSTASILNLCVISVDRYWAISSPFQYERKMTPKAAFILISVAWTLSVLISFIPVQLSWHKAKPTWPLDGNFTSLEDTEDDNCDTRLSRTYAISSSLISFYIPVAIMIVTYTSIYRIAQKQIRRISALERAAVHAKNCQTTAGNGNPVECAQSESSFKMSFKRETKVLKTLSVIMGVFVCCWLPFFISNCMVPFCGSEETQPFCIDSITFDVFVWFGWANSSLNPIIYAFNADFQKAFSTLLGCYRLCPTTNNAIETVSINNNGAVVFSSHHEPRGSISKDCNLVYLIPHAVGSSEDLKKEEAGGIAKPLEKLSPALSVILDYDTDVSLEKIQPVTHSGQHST

Question: Which results are given for COC(=O)[C@H]1[C@H]2C[C@H]3c4[nH]c5ccccc5c4CCN3C[C@H]2CC[C@@H]1O [RAUWOLSCINE]?
Answer: IC50 [1]: > 10000 nM; IC50 [2]: > 10000 nM

Question: Which Ki [3] does the source give for COc1cccc2c1CCC[C@@H]2CN(C)CCc1ccc2ccoc2c1 here?
Answer: The Ki was 241 nM.

Question: And the Ki [4]?
Answer: Its Ki is 110 nM.

Question: What about the IC50 [1] of the same compound?
Answer: Its IC50 is 4750 nM.

Question: What about the IC50 [2] of the same compound?
Answer: Its IC50 is 476 nM.

Question: Which ED50 [5] does the source give for CNCCC(Oc1ccc(C(F)(F)F)cc1)c1ccccc1 (stereo unspecified) [FLUOXETINE] here?
Answer: Its ED50 is 11.7 mg/kg.

Question: What about the ED50 [6] of the same compound?
Answer: The ED50 was 12.1 mg/kg.

Question: What about the IC50 [1] of the same compound?
Answer: Its IC50 is 16200 nM.

Question: What about the IC50 [2] of the same compound?
Answer: The IC50 was 3280 nM.

Question: What about the IC50 [7] of the same compound?
Answer: Its IC50 is 308 nM.

Question: What does the source list for Fc1ccc([C@@H]2CCNC[C@H]2COc2ccc3c(c2)OCO3)cc1 [PAROXETINE]?
Answer: Ki [3]: 5320 nM; Ki [4]: 6310 nM; IC50 [1]: 7620 nM; IC50 [2]: 160 nM

Question: Which Ki [8] does the source give for COc1cccc2c1CCC[C@H]2CN(C)CCc1ccc2ccoc2c1 here?
Answer: Its Ki is 2970 nM.

Question: What about the Ki [9] of the same compound?
Answer: Its Ki is 144 nM.

Question: And the Ki [3]?
Answer: Its Ki is 110 nM.

Question: And the Ki [10]?
Answer: The Ki was 2.01 nM.

Question: And the Ki [11]?
Answer: Its Ki is 744 nM.

Question: And the Ki [12]?
Answer: The Ki was 52 nM.

Question: And the ED50 [5]?
Answer: Its ED50 is 13.3 mg/kg.

Question: What about the ED50 [6] of the same compound?
Answer: The ED50 was 7.1 mg/kg.

Question: And the IC50 [1]?
Answer: The IC50 was 2940 nM.

Question: What about the IC50 [2] of the same compound?
Answer: Its IC50 is 865 nM.

Question: And the Ki [13]?
Answer: Its Ki is 836 nM.
